Measurements taken from patent US8512757B2, “Micelles for drug delivery” (Agency for Science, Techology and Research, priority 2006, dated 2013).

Columns and labels:
4T1 cells = assay: Cellular distribution and uptake of DOX by confocal microscopy; type: cell-based, mouse; conditions: DOX 10 mg/L, 4 hours
Method: Free DOX (10 mg/L) and DOX-loaded micelles (DOX content: 10 mg/L) in RPMI 1640 medium (without folate) were incubated with 4T1 cells for 4 hours before examination. The cells on the cover glass were thoroughly washed three times with PBS and visualized by CLSM (Olympus FV300, Japan). DOX was excited at 532 nm with emission at 595 nm. The laser power was 10%. All the observations were conducted using the same resolution.

[1] = test system: 4T1 mouse breast cancer cells; assay: Cytotoxicity test (MTT); type: cell-based; conditions: 4T1 cells, 48 hours, 37° C.
Method: 4T1 mouse breast cancer cells were cultured in RPMI 1640 (without folate) supplemented with 10% FBS, 5% penicillin, 2 mM L-glutamine (Sigma), and incubated at 37° C., 5% CO2. The cells were seeded onto 96-well plates at 10,000 cells per well, and incubated for one day. […] The media in the wells were replaced with 100 μL of the pre-prepared samples. The plates were then returned to the incubator and maintained in 5% CO2, at 37° C. for 48 hours. Fresh growth media and 10 μL aliquots of MTT solution were used to replace the mixture in each well after 48 hours. The plates were then returned to the incubator and maintained in 5% CO2, at 37° C., for a further 3 hours. The growth medium and excess MTT in each well were then removed. DMSO (150 μL) was then added to each well to dissolve the internalised purple formazan crystals. An aliquot of 100 μL was taken from each well and transferred to a fresh 96-well plate. Each sample was tested in eight replicates per plate. Three plates were used, making a total of 24 replicates per sample. The plates were then assayed at 550 nm and 690 nm. The absorbance readings of the formazan crystals were taken to be that at 550 nm subtracted by that at 690 nm. The results were expressed as a percentage of the absorbance of the blank control.

[2] = Biodistribution in mice bearing subcutaneous 4T1 breast tumours; type: in vivo; conditions: 5 mg/kg DOX
Method: Female balb/c (body weight: 19-21 g) were subcutaneously implanted with 4T1 cells (10^7 cells per animal). Tumours were allowed to grow for 2 weeks. Free DOX and DOX-loaded micelles were administrated to the animals by tail vein injection at an equivalent DOX dose of 5 mg/kg. At 10 minutes, 30, minutes, 2 hours and 4 hours, blood samples were taken, and the animals were sacrificed. The liver, lung, heart, spleen, kidney and tumour were removed, and kept at −80° C. for future analysis. The organs were weighted and homogenized. DOX distributed in different organs was extracted using chloroform and isopropanol, and analyzed as described by H. S. Yoo, T. G. Park, J. Control. Rel. 2004, 100, 247. Homogenized tissue was added into an acidic hydrolysis buffer containing 2.0 M HCl solution at 80° C. for 10 minutes. The supernatant was collected, and 0.9 mL of the mixture of chloroform and isopropanol (3:1 in volume) was then added. After vortex-mixing, the organic layer was collected by centrifugation at 16,000 rpm for 15 minutes at room temperature. The solution was dried, and re-dissolved in a mobile phase and analyzed by high performance liquid chromatography (HPLC). The recovery rate was 70%, and corrected by an internal standard. The HPLC system consisted of a Waters 2690 separation module and Waters 2475 multi λ fluorescence detector. […] The DOX peak was detected at an excitation wavelength of 480 nm and an emission wavelength of 580 nm.

[3] = tail vein injection, 4T1 tumour

## COc1cccc2c1C(=O)c1c(O)c3c(c(O)c1C2=O)C[C@@](O)(C(=O)CO)C[C@@H]3O[C@H]1C[C@H](N)[C@H](O)[C@H](C)O1.Cl [free DOX, Doxorubicin hydrochloride]
4T1 cells
  cellular distribution of DOX: only accumulated in the nucleus
[1]
  IC50 value of DOX: 3.0 µg/mL
[2]; spleen, kidney, heart, liver and lung
  organ distribution of DOX: accumulating uniformly in the heart, lung and liver
[2]; tail vein injection
  t1/2 in the blood: about 30 minutes
[2]; [3]
  maximum DOX level in tumour tissue: 2.9 µg/g
  time at which maximum DOX level in tumour was reached: 30 min
[2]; tail vein injection, 240 minutes
  DOX level in tumour tissue at 240 minutes: 1.0 µg/g
